{"source": "patent US20240368096A1", "about": "(Enanta Pharmaceuticals, Inc., priority 2022, published 2024)"}
{"tested_on": "HBV", "assay": "HBV infection in HepG2-NTCP cells (HBeAg AlphaLISA in supernatants)", "format": "cell-based", "details": "Hepatitis B virus, 192 h; HBV infection of HepG2-NTCP cells; HBeAg in supernatants at day 8 post infection; read-out: Cellular EC50", "method_in_brief": "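Readout was day-8 supernatant HBeAg by AlphaLISA, with EC50 set against DMSO controls and binned A<0.1 μM, B 0.1-1 μM, C>1 μM. Compounds were added 2 h before HBV (2000 GE/cell, 4% PEG, 0.5% DMSO) to HepG2-NTCP A3 cells; from day 1 medium held 2.5% DMSO.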", "units": {"EC50": "nM"}}
{"molecule": "CCCCCCOc1cc2c(cc1-c1ccc(F)c(C(=O)O)c1)S(=O)(=O)N(C)[C@H](C1CCCCC1)CN2c1ccccc1", "note": "[Example 352]", "EC50": "< 100"}
{"molecule": "COc1cc(-c2cc3c(cc2Cl)N(c2ccccc2)C[C@@H](C2CCCCC2)N(C)S3(=O)=O)cc(C(=O)O)c1N", "note": "[Example 191]", "EC50": "< 100"}
{"molecule": "CN1[C@H](C2CCCCC2)CN(c2ccccc2)c2cc(Oc3ccccc3F)c(-c3ccc(Cl)c(C(=O)O)c3)cc2S1(=O)=O", "note": "[Example 401, (R)-2-chloro-5-(3-cyclohexyl-7-(2-fluorophenoxy)-2-methyl-1,1-dioxido-5-phenyl-2,3,4,5-tetrahydrobenzo[f][1,2,5]thiadiazepin-8-yl)benzoic acid]", "EC50": "< 100"}
{"molecule": "CN1[C@H](C2CC2)CN(c2ccccc2)c2cc(Cl)c(-c3ccc(Cl)c(C(=O)O)c3)cc2S1(=O)=O", "note": "[Example 65]", "EC50": "< 100"}
{"molecule": "CN1[C@H](C2CCCCC2)CN(c2ccccc2)c2cc(OCC3CCC3)c(-c3ccc(F)c(C(=O)O)c3)cc2S1(=O)=O", "note": "[Example 364]", "EC50": "< 100"}
{"molecule": "CN1[C@H](C2CCCCC2)CN(c2ccccc2)c2cc(Cl)c(-c3cc(C(=O)O)n(C)n3)cc2S1(=O)=O", "note": "[Example 134]", "EC50": "< 100"}
{"molecule": "CC(C)[C@@H]1CN(c2ccccc2)c2cc(Cl)c(-c3cc(F)c(F)c(C(=O)O)c3)cc2S(=O)(=O)N1C", "note": "[Example 63]", "EC50": "< 100"}
{"molecule": "CCCC[C@@H]1CN(c2ccccc2)c2cc(Oc3cccc(Cl)c3)c(-c3ccc(F)c(C(=O)O)c3)cc2S(=O)(=O)N1C", "note": "[Example 423]", "EC50": "< 100"}
{"molecule": "CSc1cc2c(cc1-c1cncc(C(=O)O)c1)S(=O)(=O)N1CC(C)(C)CC1CN2c1ccccc1", "note": "(stereo not drawn) [Example 21]", "EC50": "100 to 1000"}
{"molecule": "CN1[C@H](C2CCCCC2)CNc2cc(C3CCC3)c(-c3ccc(F)c(C(=O)O)c3)cc2S1(=O)=O", "note": "[Example 586]", "EC50": "100 to 1000"}
{"molecule": "CC(C)C[C@@H]1CN(c2ccccc2)c2cc(Oc3ccc(Cl)c(C(F)(F)F)c3)c(-c3ccc(F)c(C(=O)O)c3)cc2S(=O)(=O)N1C", "note": "[Example 434]", "EC50": "100 to 1000"}
{"molecule": "CN1[C@H](C2CCCCC2)CN(c2ccccc2)c2cc(Cl)c(-c3ccc(NS(=O)(=O)Cc4ccccc4)c(C(=O)O)c3)cc2S1(=O)=O", "note": "[Example 269]", "EC50": "< 100"}
{"molecule": "CN1[C@H](C2CCCCC2)CN(c2ccccc2)c2cc(Cl)c(-c3ccc4c(c3)S(=O)(=O)NC4=O)cc2S1(=O)=O", "note": "[Example 198]", "EC50": "100 to 1000"}
{"molecule": "CC(C)NC(=O)N1CCC(Oc2cc3c(cc2-c2ccc(F)c(C(=O)O)c2)S(=O)(=O)N(C)[C@H](C2CCCCC2)CN3c2ccccc2)CC1", "note": "[Example 400, (R)-5-(3-cyclohexyl-7-((1-(isopropylcarbamoyl)piperidin-4-yl)oxy)-2-methyl-1,1-dioxido-5-phenyl-2,3,4,5-tetrahydrobenzo[f][1,2,5]thiadiazepin-8-yl)-2-fluorobenzoic acid]", "EC50": "100 to 1000"}
{"molecule": "CN1[C@H](C2CCCCC2)CN(c2ccccc2)c2cc(Cl)c(-c3ccc4c(c3)C(=O)NC4=O)cc2S1(=O)=O", "note": "[Example 197]", "EC50": "> 1000"}
{"molecule": "CC(C)C[C@@H]1CN(CC(C)C)c2cc(Oc3ccc(F)cc3)c(-c3ccc(F)c(C(=O)O)c3)cc2S(=O)(=O)N1C", "note": "[Example 475, (R)-2-fluoro-5-(7-(4-fluorophenoxy)-3,5-diisobutyl-2-methyl-1,1-dioxido-2,3,4,5-tetrahydrobenzo[f][1,2,5]thiadiazepin-8-yl)benzoic acid]", "EC50": "100 to 1000"}
{"molecule": "CCCCC1CN(c2ccccc2)c2cc(CN3CCCCC3)c(-c3ccc(F)c(C(=O)O)c3)cc2S(=O)(=O)N1C", "note": "(stereo not drawn) [Example 564]", "EC50": "100 to 1000"}
{"molecule": "CN1[C@H](C2CCCCC2)CN(c2ccccc2)c2cc(OCC34CC(C#N)(CO3)C4)c(-c3cc(F)c(C(=O)O)s3)cc2S1(=O)=O", "note": "[Example 504]", "EC50": "< 100"}
{"molecule": "CC(C)C[C@@H]1CN(c2ccccc2)c2cc(Oc3ccc(Cl)cc3)c(-c3ccc(F)c(C(=O)O)c3)cc2S(=O)(=O)N1C", "note": "[Example 433]", "EC50": "100 to 1000"}
{"molecule": "CCOc1cc2c(cc1-c1ccc(F)c(C(=O)O)c1)S(=O)(=O)N(C)[C@H](C1CCCCC1)CN2c1ccccc1", "note": "[Example 349]", "EC50": "< 100"}
{"molecule": "CCCC[C@H]1CN(c2ccccc2)c2cc(N3CCCC3)c(-c3ccc(F)c(C(=O)O)c3)cc2S(=O)(=O)N1C", "note": "[Example 543]", "EC50": "> 1000"}
{"molecule": "CC(=O)NS(=O)(=O)c1cccc(-c2cc3c(cc2Cl)N(c2ccccc2)C[C@@H](CC(C)C)N(C)S3(=O)=O)c1", "note": "[Example 220, (R)—N-((3-(7-chloro-3-isobutyl-2-methyl-1,1-dioxido-5-phenyl-2,3,4,5-tetrahydrobenzo[f][1,2,5]thiadiazepin-8-yl)phenyl)sulfonyl)acetamide]", "EC50": "100 to 1000"}
{"molecule": "CN1[C@H](C2CCC(F)(F)CC2)CN(c2ccccc2)c2cc(Cl)c(-c3ccc(Cl)c(C(=O)O)c3)cc2S1(=O)=O", "note": "[Example 29]", "EC50": "100 to 1000"}
{"molecule": "O=C(O)c1cc(-c2cc3c(cc2Cl)N(c2ccccc2)CC(C2CCCCC2)CS3(=O)=O)cc(F)c1F", "note": "(racemic) [Example 606, Rac-5-(7-chloro-3-cyclohexyl-1,1-dioxido-5-phenyl-2,3,4,5-tetrahydrobenzo[b][1,4]thiazepin-8-yl)-2,3-difluorobenzoic acid]", "EC50": "< 100"}
{"molecule": "CC(C)C[C@@H]1CN(c2ccccc2)c2cc(-c3cccnc3)c(-c3ccc(F)c(C(=O)O)c3)cc2S(=O)(=O)N1C", "note": "[Example 580]", "EC50": "< 100"}
{"molecule": "CN1[C@H](COCc2ccccc2)CN(c2ccccc2)c2cc(Cl)c(-c3ccc(F)c(C(=O)O)c3)cc2S1(=O)=O", "note": "[Example 102]", "EC50": "> 1000"}
{"molecule": "COc1cc2c(cc1-c1cccc(C(=O)O)c1)S(=O)(=O)N1Cc3ccccc3C1CN2c1ccccc1", "note": "(stereo not drawn) [Example 16]", "EC50": "100 to 1000"}
{"molecule": "CN1[C@H](C2CCCCC2)CN(c2ccccc2)c2cc(OCCC3CCN(C(=O)OC(C)(C)C)CC3)c(-c3ccc(F)c(C(=O)O)c3)cc2S1(=O)=O", "note": "[Example 367]", "EC50": "< 100"}
{"molecule": "COC1CCN(c2cc3c(cc2-c2ccc(Cl)c(C(=O)O)c2)S(=O)(=O)N(C)[C@H](C2CCCCC2)CN3c2ccccc2)CC1", "note": "[Example 559]", "EC50": "100 to 1000"}
{"molecule": "CN1[C@H](C2CCCCC2)CN(c2ccccc2)c2cc(OCCCc3cscn3)c(-c3ccc(F)c(C(=O)O)c3)cc2S1(=O)=O", "note": "[Example 347]", "EC50": "< 100"}
{"molecule": "CSc1cc2c(cc1-c1cccc(C(=O)O)c1)S(=O)(=O)N1C[C@H](C(F)(F)F)C[C@@H]1CN2c1ccccc1", "note": "[Example 23]", "EC50": "> 1000"}
{"molecule": "CC(C)C[C@@H]1CN(c2ccccc2)c2cc(Oc3ccccc3F)c(-c3ccc(Cl)c(C(=O)O)c3)cc2S(=O)(=O)N1C", "note": "[Example 424]", "EC50": "< 100"}
{"molecule": "CN1[C@H](C2CCC2)CN(c2ccccc2)c2cc(Cl)c(-c3ccc([N+](=O)[O-])c(C(=O)O)c3)cc2S1(=O)=O", "note": "[Example 203]", "EC50": "< 100"}
{"molecule": "Cc1cc(N2C[C@@H](C3CCCCC3)N(C)S(=O)(=O)c3cc(-c4ccc(F)c(C(=O)O)c4)c(Cl)cc32)ccn1", "note": "[Example 285]", "EC50": "> 1000"}
{"molecule": "CC(=O)NS(=O)(=O)c1cc(-c2cc3c(cc2Cl)N(c2ccccc2)C[C@@H](C2CCCCC2)N(C)S3(=O)=O)ccc1Cl", "note": "[Example 224]", "EC50": "< 100"}
{"molecule": "CN1[C@H](C2CCCCC2)CN(c2ccccc2)c2cc(C3CCN(C(=O)c4cnn(C)c4)CC3)c(-c3ccc(F)c(C(=O)O)c3)cc2S1(=O)=O", "note": "[Example 598]", "EC50": "> 1000"}
{"molecule": "CN1[C@H](C(C)(C)C)CN(c2ccccc2)c2cc(Cl)c(-c3ccc(F)c(C(=O)O)c3)cc2S1(=O)=O", "note": "[Example 85, (R)-5-(3-(tert-butyl)-7-chloro-2-methyl-1,1-dioxido-5-phenyl-2,3,4,5-tetrahydrobenzo[f][1,2,5]thiadiazepin-8-yl)-2-fluorobenzoic acid]", "EC50": "< 100"}
{"molecule": "CCCC[C@@H]1CN(c2ccccc2)c2cc(C)c(-c3ccc(F)c(C(=O)O)c3)cc2S(=O)(=O)N1C", "note": "[Example 566, (R)-5-(3-butyl-2,7-dimethyl-1,1-dioxido-5-phenyl-2,3,4,5-tetrahydrobenzo[f][1,2,5]thiadiazepin-8-yl)-2-fluorobenzoic acid]", "EC50": "100 to 1000"}
{"molecule": "CN1[C@H](C2CCCCC2)CN(c2ccccc2)c2cc(OC3CC(C)(C)C3)c(-c3cc(F)c(C(=O)O)s3)cc2S1(=O)=O", "note": "[Example 483, (R)-5-(3-cyclohexyl-7-(3,3-dimethylcyclobutoxy)-2-methyl-1,1-dioxido-5-phenyl-2,3,4,5-tetrahydrobenzo[f][1,2,5]thiadiazepin-8-yl)-3-fluorothiophene-2-carboxylic acid]", "EC50": "< 100"}
{"molecule": "CN1[C@H](C2CCCCC2)CN(c2ccccc2)c2cc(C3CCN(C(=O)C(F)(F)F)C3)c(-c3ccc(F)c(C(=O)O)c3)cc2S1(=O)=O", "note": "(stereo partly drawn) [Example 601]", "EC50": "100 to 1000"}
{"molecule": "CCCC[C@@H]1CN(c2ccccc2)c2cc(N3CCCC3)c(-c3ccc(F)c(C(=O)O)c3)cc2S(=O)(=O)N1C", "note": "[Example 520, (R)-5-(3-butyl-2-methyl-1,1-dioxido-5-phenyl-7-(pyrrolidin-1-yl)-2,3,4,5-tetrahydrobenzo[f][1,2,5]thiadiazepin-8-yl)-2-fluorobenzoic acid]", "EC50": "100 to 1000"}
{"molecule": "O=C(O)c1cccc(-c2cc3c(cc2F)N(c2ccccc2)CC2c4ccccc4CN2S3(=O)=O)c1", "note": "(stereo not drawn) [Example 3]", "EC50": "> 1000"}
{"molecule": "CN1[C@H](C2CCCCC2)CN(c2ccccc2)c2cc(Oc3ccc(F)c(F)c3)c(-c3ccc(F)c(C(=O)O)c3)cc2S1(=O)=O", "note": "[Example 404]", "EC50": "< 100"}
{"molecule": "CC(Oc1cc2c(cc1-c1cc(F)c(C(=O)O)s1)S(=O)(=O)N(C)[C@H](C1CCCCC1)CN2c1ccccc1)c1nccs1", "note": "(stereo partly drawn) [Example 502]", "EC50": "100 to 1000"}
{"molecule": "O=C(O)c1cc(-c2cc3c(cc2F)N(c2ccccc2)C[C@H]2C[C@@H](C(F)(F)F)CN2S3(=O)=O)ccc1F", "note": "[Example 10]", "EC50": "> 1000"}
{"molecule": "CC(C)C[C@@H]1CN(c2ccccc2)c2cc(N3CCCc4ccccc43)c(-c3ccc(Cl)c(C(=O)O)c3)cc2S(=O)(=O)N1C", "note": "[Example 557]", "EC50": "100 to 1000"}
{"molecule": "CN1[C@H](C2CCCCC2)CNc2cc(-c3cccnc3)c(-c3ccc(F)c(C(=O)O)c3)cc2S1(=O)=O", "note": "[Example 572]", "EC50": "100 to 1000"}
{"molecule": "CN1[C@H](C2CCCCC2)CN(c2ccccc2)c2cc(Cl)c(-c3cc(C(=O)O)cc(C(F)(F)F)c3)cc2S1(=O)=O", "note": "[Example 142, (R)-3-(7-chloro-3-cyclohexyl-2-methyl-1,1-dioxido-5-phenyl-2,3,4,5-tetrahydrobenzo[f][1,2,5]thiadiazepin-8-yl)-5-(trifluoromethyl)benzoic acid]", "EC50": "100 to 1000"}
